Experimental data published in patent US5036097A, “Phenylbutyl nitrone compositions and methods for prevention of gastric ulceration” (Oklahoma Medical Research Foundation, priority 1990, dated 1991).

Key:
[1] = system: piroxicam-induced gastric ulcers; experiment: suppression of piroxicam-induced gastric ulcers by interventions (PBN, free radical scavengers, ascorbate); assay type: in vivo, rat (male Sprague-Dawley)
Method: FIG. 2 is a graph of % control ulceration from piroxicam versus the % ulceration in the presence of free radical scavengers. The […] scavenger dimethylthiourea (DMTU, 500 mg/kg i.p.) was given 24 hours and 1 hour before piroxicam. […] The antioxidant butylated hydroxytoluene (BHT, 25 mg/kg/day i.p. in corn oil) was given for three days before and again 1 hour before piroxicam. The % control ulceration is determined by averaging the ratios of cm^2 ulceration in control stomachs from rats given piroxicam alone, and multiplying×100. +P< 0.01 compared to piroxicam alone.
Male Sprague-Dawley rats (Charles River, Wilmington, Mass.) weighing 300-325 g were housed individually in wire bottomed cages to prevent ingestion of hair and feces. Animals were maintained without food for 48 hours and without water for 24 hours prior to each experiment. Piroxicam or aspirin and other NSAIDS were suspended in a vehicle of 1% carboxymethylcellulose, 0.1% Tween 80 and 0.15 M HCl, and administered in a volume of 1 ml on the morning of study by oral gavage using an 18 gauge curved blunt needle (Popper and Sons, New Hyde Park, N.Y.). One ml of vehicle alone was administered for control experiments. HCl was added to the vehicle to insure an acid environment in the stomach in all studies. […] Four hours after the administration of NSAID or vehicle, rats were euthanized with sodium pentobarbital (100 mg/kg IP), and the surface area of ulceration per stomach was quantitated using morphometric techniques. Stomachs were removed, the lumen was exposed by an incision along the radius of greater curvature, and the stomach was washed in phosphate buffered saline. The luminal surface was laid out on a flat surface with gross folds removed by gentle distension. The percentage of surface involved with submucosal hemorrhage was then determined by point counting, as described by Weibel, E. R. Stereological Methods: Practical Methods for Biological Morphometry. Academic Press, New York 1980. This was done by tabulation of the percentage of points over ulcerations using a point counting eyepiece graticle (16×16 points in a square format). At the 12X magnification used on the Wild dissecting microscope (Wild-Heerbrugg, Basel, Switzerland), the graticle covered a 1 cm^2 area of the surface. Four to five non-overlapping sampling sites were taken to fully cover the exposed surface. To determine the total luminal surface area, the outline of the outer boundary of the stomach was traced using a transparent acetate sheet, and the area was determined from planimetry. The surface area of ulcerated regions per stomach was then determined by multiplying the surface density of ulceration regions by the luminal surface area of the stomach.
Differences in total luminal surface area in cm^2, surface area of ulcerated regions per stomach and biochemical analyses between each treatment intervention and its corresponding untreated control group are compared using the Mann-Whitney U Test, Dixon, W. J., Massey, F. J., Jr. Introduction to statistical methods, 4th edition. (New York: McGraw Hill, 1983). […] In vitro studies are compared using the Student's unpaired T-test, Dixon, W. J., Massey, F. J., Jr. Introduction to statistical methods, 4th edition. (New York: McGraw Hill, 1983). Values are expressed as mean±SEM. Significance is assumed when P<0.05.
In each experiment, the surface area of gastric ulceration produced by piroxicam in 15 treated rats was compared to that in 15 rats of the same age and size that were fasted simultaneously but which received no intervention. Phenylbutyl nitrone (30 mg/kg) was given orally in water 1 hour before piroxicam and also added to vehicle when piroxicam was administered. When intervention were given with piroxicam, the pH of the final mixture was adjusted if necessary to equal that of piroxicam and vehicle alone.

[2] = system: gastric mucosal glutathione; experiment: glutathione in gastric mucosa; assay type: in vivo, rat; conditions: 4 h after piroxicam
Method: MEASUREMENT OF GLUTATHIONE IN GASTRIC MUCOSA.
Gastric mucosal glutathione is measured in piroxicam-and vehicle-treated rat stomachs. Four hours after piroxicam or vehicle, stomachs are opened, washed with ice cold saline, and spread along a flat surface with lumens exposed. The gastric mucosa is then removed by scraping with a surgical blade. The mucosa is homogenized on ice in 1 ml of 1.15% KCl. Two aliquots of 250 μl are snap frozen in liquid nitrogen and stored at -70° C. for later determination of total glutathione by the method of Anderson, M. E. Methods Enzymol 113:548-555 (1985) and protein by a modification of the Lowry method, described by Bennett, J. P. Techniques Lipid Membrane Biochem. B408:1-22 (1982), using bovine serum albumin as a standard. Results are expressed as nmole/mg protein. To measure oxidized glutathione (GSSG), the remaining 500 μl is mixed with an equal volume of N-ethylmaleimide (NEM) in water (10 mM final concentration of NEM), snap frozen and stored at -70° C. After thawing for analysis, this mixture is passed over a C-18 Sep-Pak column (Waters Associates, Milford, Mass.) and washed with 1 ml phosphate buffer (pH 7.5). This technique for removing excess NEM has been previously shown to result in >90% recovery of GSSG. GSSG is then assayed by the method used above to determine total glutathione.

## CN1C(C(=O)Nc2ccccn2)=C(O)c2ccccc2S1(=O)=O [piroxicam]
[1]; ascorbate-treated stomachs (with piroxicam) vs piroxicam alone, P<0.001
  ulceration (ascorbate experiment): 0.031±0.009 cm^2
[1]; piroxicam 23 mg/kg only, or plus PBN 30 mg/kg orally 1 hour before and with piroxicam, p<0.0052
  ulcerations/unit area: 0.229±0.145 ulcerations/unit area
[2]; difference vs vehicle not statistically significant
  total glutathione in gastric mucosa: 0.33±0.03 nmoles/mg protein
[2]; vehicle 6.4 0.7%, not statistically significant
  fraction of GSSG: 8.9±0.9%
